Source: US20220152226A1, “INTRACELLULAR DELIVERY AND MITOCHONDRIAL TARGETING BY FLUORINATION” (The Texas A&M University System, priority 2019, published 2022)

Assays:
[1] = tested on: isolated mitochondria (HeLa cells); experiment: Binding affinity study with isolated mitochondria; parameters: species or system human; conditions: 37° C., 1 h, fluorescence
Method: (§1) Mitochondria Isolation and Binding Affinity Study. The intracellular mitochondria were isolated by the commercial Mitochondria Isolation Kit for Cultured Cells (Thermo Fisher Scientific). Briefly, 2×10^7 HeLa cells were collected by trypsinization and centrifugation (850 g for 2 min). Then, the cells were lysed and the mitochondria were separated from other cell fragments by several washing and centrifugation steps as the manufacture's manual (Option A). The isolated mitochondria were freshly made for the binding affinity study.
The isolated mitochondria were incubated with the FITC-PEG2k, FITC-PE, FITC-F7, FITC-PEG2k-F7, Rh123, and MITOVIEW™ Green at 37° C. for 1 h, respectively. Then, the mitochondria were washed with PBS for three times and suspended in 200 μL PBS. The mitochondria suspension was observed on a Nikon Ti Eclipse fluorescence microscope. The fluorescence intensity was recorded on the microplate reader.

[2] = tested on: isolated mitochondria (HeLa cells); experiment: Competitive binding assay on isolated mitochondria (Rh123); parameters: species or system human; conditions: pre-incubation 37° C. 1 h, then Rh123 1 h
Method: as §1
For the competitive binding assay, the isolated mitochondria were pre-incubated with triphenylphosphonium (TPP) or PEG2k-F7 at 37° C. for 1 h, and then washed with PBS for three times. The pretreated mitochondria were incubated with Rh123 at 37° C. for additional 1 h. After washing with PBS for three times, the mitochondria were analyzed by the microplate reader.

[3] = tested on: HeLa cells; experiment: Mitochondrial membrane potential measurement (JC-1 dye, flow cytometry); assay type: cell-based, human; conditions: 50 μM, 1 h, compared to untreated cells (FIG. 6B)
Method: Mitochondrial Membrane Potential Measurement. The mitochondrial membrane potential was determined using the JC-1 dye by flow cytometry. Briefly, the HeLa cells were seeded at a density of 1×10^5 cells/well in 24-well plates for 24 h. The cells were incubated with the same molar concentration (50 μM) of the PEG2k-F7, TPP and CCCP (mitochondrial uncoupler) in the serum-free medium for 1 h. Then, the cells were washed three times by the iced-cold medium to remove the uninternalized materials. The cells were incubated with the JC-1 dye (Biotium) for 15 min at 37° C., followed by the flow cytometry.

[4] = Body weight and white blood cell counts of treated 4T1 tumor mice; assay type: in vivo, BALB/c mice
Method: Animal experiments. The subcutaneous (s.c.) syngeneic 4T1 tumor mouse model was established by s.c. implantation of 5×10^6 4T1 cells in the right rear flank of the BALB/c mice. The tumor was measured by a caliper.
To study anticancer activity, the saline, VES, PEG2k-F7, VES-loaded PEG2k-PE micelles and VES-loaded PEG2k-F7 micelles were injected intravenously via the tail at a dose of 20 mg/kg every three days for 3 injections. The tumor size and mouse body weight were monitored every other day. The mice were sacrificed and the blood, major organs and tumors were collected. White blood cells were counted by using a hemocytometry by microscopy.

[5] = tested on: mitochondria; experiment: Quantification of mitochondria-accumulated dyes in living cells; assay type: cell-based
Method: For quantification of the mitochondria-accumulated dyes in living cells, 2×10^7 cells were incubated with the FITC-PE, FITC-F7, or Rh123 at 37° C. for 1 h. After washing with PBS, the (total) cellular fluorescence intensity was measured by microplate reader. Then, the cells were lysed and the mitochondria were separated from other cell fragments by Mitochondria Isolation Kit for Cultured Cells (Option A). The fluorescence intensities of the isolated mitochondria and other cell fragments were measured by the microplate reader. To study the influence of mitochondrial membrane potential on mitochondrial targeting, the cells were pre-incubated with the uncoupler, CCCP (50 μM), for 15 min, and then incubated with the FITC-F7 or Rh123 for 1 h.

Compound: fluorescein isothiocyanate [FITC]
- binding affinity with isolated mitochondria [1]: did not significantly bind

Compound: c1ccc(P(c2ccccc2)c2ccccc2)cc1 [TPP, triphenylphosphonium]
- decrease of Rh123 binding affinity by pre-incubation [2]: about 50%
- effect on mitochondrial membrane potential [3]: dramatically depolarized mitochondria

Compound: Cc1c(C)c2c(c(C)c1OC(=O)CCC(=O)O)CC[C@@](C)(CCC[C@H](C)CCC[C@H](C)CCCC(C)C)O2 [VES, d-Vitamin E succinate]
- white blood cell (WBC) counts ([4]; FIG. 13): relatively similar to one another
- body weight of mice ([4]; over 14 days (FIG. 10)): stayed relatively the same

Compound: rhodamine 123 [Rh123]
- effect of CCCP-induced membrane depolarization on mitochondrial accumulation ([5]; CCCP 50 μM pre-incubation 15 min, then dye 1 h): substantially reduced
- mitochondrial accumulation ([5]; mitochondria isolated from treated cells, 37° C., 1 h): 17.5%
